This note sets out measurements from patent US20170001990A1 (Genentech, Inc., priority 2014, published 2017).

Where “and” joins values, the source holds several entries; their conditions need not be identical. Equal values may be shown once.

This experiment deals with Human recombinant carboxy-terminal his-tagged LDHA (amino acids 2-332) (Homo sapiens, UniProt P00338). The experiment in a line: LDHA enzyme inhibition assay (NADH fluorescence). The following applies: LDHA IC50 (μM), 1 nM LDHA, NADH and pyruvate, stereochemistry of tested sample given.
Consider `COc1cc(Cc2cccc(C3(c4ccsc4)CC(=O)C(Sc4ccccc4Cl)C(=O)N3)n2)ccc1F` (single isomer, unassigned) [Example 283, 3-((2-chlorophenyl)thio)-6-(6-(4-fluoro-3-methoxy-benzyl)pyridin-2-yl)-6-(thiophen-3-yl)piperidine-2,4-dione], for which the IC50 (usually the point on the concentration scale where inhibition reaches its midpoint) worked out at 0.037 µM.

With `COc1cc(Cc2cccc(C3(c4ccsc4)CC(=O)C(Sc4ccccc4Cl)C(=O)N3)n2)ccc1F` (single isomer, unassigned) [Example 284, 3-((2-chlorophenyl)thio)-6-(6-(4-fluoro-3-methoxy-benzyl)pyridin-2-yl)-6-(thiophen-3-yl)piperidine-2,4-dione], the IC50 was found to be 0.041 µM.

As to `O=C1CC(c2ccsc2)(c2cccc(NCc3ccc(F)cc3)n2)NC(=O)C1Sc1ccccc1Cl` (single isomer, unassigned) [Example 285, 3-((2-chlorophenyl)thio)-6-(6-((4-fluorobenzyl)amino)pyridin-2-yl)-6-(thiophen-3-yl)piperidine-2,4-dione], the concentration for half-maximal inhibition (IC50) turned out to be 0.01 µM.

As for `O=C1CC(c2ccsc2)(c2cccc(OCc3ccc(F)cc3)n2)NC(=O)C1Sc1ccccc1Cl` (single isomer, unassigned) [Example 289, 3-((2-chlorophenyl)thio)-6-(6-((4-fluorobenzyl)oxy)pyridin-2-yl)-6-(thiophen-3-yl)piperidine-2,4-dione], the 50% inhibitory concentration (IC50) was determined as 0.022 µM.

In the case of `O=C1CC(c2ccsc2)(c2cccc(NCc3ccc(F)cc3)n2)NC(=O)C1Sc1ccccc1Cl` (single isomer, unassigned) [Example 291, 3-((2-chlorophenyl)thio)-6-(6-((4-fluorobenzyl)amino)pyridin-2-yl)-6-(thiophen-3-yl)piperidine-2,4-dione], the half-maximal inhibitory concentration (IC50) turned out to be 0.093 µM. Regarding `O=C1CC(c2ccsc2)(c2cccc(NCc3ccc(F)cc3)n2)NC(=O)C1Sc1ccccc1Cl` (single isomer, unassigned) [Example 292, 3-((2-chlorophenyl)thio)-6-(6-((4-fluorobenzyl)amino)pyridin-2-yl)-6-(thiophen-3-yl)piperidine-2,4-dione], the IC50 was 0.037 µM. Regarding `O=C1CC(c2ccsc2)(c2cccc(CCc3ccc(F)cc3)n2)NC(=O)C1Sc1ccccc1Cl` (single isomer, unassigned) [Example 293, 3-((2-chlorophenyl)thio)-6-(6-(4-fluorophenethyl)pyridin-2-yl)-6-(thiophen-3-yl)piperidine-2,4-dione], the half-maximal inhibitory concentration (IC50) worked out at 0.091 µM. In the case of `O=C1CC(c2ccsc2)(c2cccc(CCc3ccc(F)cc3)n2)NC(=O)C1Sc1ccccc1Cl` (single isomer, unassigned) [Example 294, 3-((2-chlorophenyl)thio)-6-(6-(4-fluorophenethyl)pyridin-2-yl)-6-(thiophen-3-yl)piperidine-2,4-dione], the IC50 worked out at 0.036 µM. As to `O=C1CC(c2ccsc2)(c2cccc(OCc3ccc(F)cc3)n2)NC(=O)C1Sc1ccccc1Cl` (single isomer, unassigned) [Example 298, 3-((2-chlorophenyl)thio)-6-(6-((4-fluorobenzyl)oxy)pyridin-2-yl)-6-(thiophen-3-yl)piperidine-2,4-dione], the half-maximal inhibitory concentration (IC50) was found to be 0.063 µM.

Regarding `COc1ccccc1Oc1cccc(C2(c3ccsc3)CC(=O)C(Sc3ccccc3Cl)C(=O)N2)n1` (single isomer, unassigned) [Example 337, 5-(2-chlorophenyl)sulfanyl-4-hydroxy-2-[6-(2-methoxyphenoxy)-2-pyridyl]-2-(3-thienyl)-1,3-dihydropyridin-6-one], the half-maximal inhibitory concentration (IC50) is 0.021 µM. For the compound `C[C@H](Nc1cccc(C2(c3ccsc3)CC(=O)C(Sc3ccccc3Cl)C(=O)N2)n1)c1ccc(F)cc1` (stereo in doubt) [Example 303, 3-((2-chlorophenyl)thio)-6-(6-((1-(4-fluorophenyl)ethyl)amino)pyridin-2-yl)-6-(thiophen-3-yl) piperidine-2,4-dione], the IC50 was found to be 0.434 µM. For `C[C@@H](CC1CC1)Oc1cccc(C2(c3ccsc3)CC(=O)C(Sc3ccccc3Cl)C(=O)N2)n1` (stereo in doubt) [Example 322, 3-((2-chlorophenyl)thio)-6-(6-((1-cyclopropyl-propan-2-yl)oxy)pyridin-2-yl)-6-(thiophen-3-yl) piperidine-2,4-dione], the half-maximal inhibitory concentration (IC50) stood at 0.012 µM. The result for `O=C1CC(c2ccsc2)(c2cccc(Br)n2)NC(=O)C1Sc1ccccc1Cl` (centres unmarked) [Example 1, 6-(6-bromo-2-pyridyl)-3-(2-chlorophenyl)sulfanyl-6-(3-thienyl)piperidine-2,4-dione] reads 0.006 µM. Turning to `CC(C)Oc1cccc(C2(c3ccsc3)CC(=O)C(Sc3ccccc3Cl)C(=O)N2)n1` (centres unmarked) [Example 2, 3-(2-chlorophenyl)sulfanyl-6-(6-isopropoxy-2-pyridyl)-6-(3-thienyl)piperidine-2,4-dione], the concentration for half-maximal inhibition (IC50) is 0.082 µM. The result for `O=C1CC(c2ccsc2)(c2cccc(Cc3cccc(F)c3)n2)NC(=O)C1Sc1ccccc1Cl` (centres unmarked) [Example 5, 3-(2-chlorophenyl)sulfanyl-6-[6-[(3-fluorophenyl)methyl]-2-pyridyl]-6-(3-thienyl)piperidine-2,4-dione] reads 0.028 µM and 0.009 µM and 0.066 µM. As to `CC1CN(c2ccc(C3(c4ccsc4)CC(=O)C(Sc4ccccc4Cl)C(=O)N3)cc2)CCO1` (centres unmarked) [Example 7, 3-(2-chlorophenyl)sulfanyl-6-[4-(2-methylmorpholin-4-yl)phenyl]-6-(3-thienyl)piperidine-2,4-dione], the IC50 worked out at 0.009 µM. To `O=C1CC(c2ccc(C3=CCCCC3)cc2)(c2ccsc2)NC(=O)C1Sc1ccccc1Cl` (centres unmarked) [Example 8, 3-(2-chlorophenyl)sulfanyl-6-[4-(cyclohexen-1-yl)phenyl]-6-(3-thienyl)piperidine-2,4-dione] belongs 0.004 µM. As for `CN1C(=O)C(Sc2ccccc2Cl)C(=O)CC1(c1ccsc1)c1cccc(Nc2ccc(F)cc2)n1` (centres unmarked) [Example 11, 3-(2-chlorophenyl)sulfanyl-6-[6-(4-fluoroanilino)-2-pyridyl]-1-methyl-6-(3-thienyl)piperidine-2,4-dione], the IC50 is 0.002 µM. Consider `CN1C(=O)C(Sc2ccccc2Cl)C(=O)CC1(c1ccsc1)c1cccc(Oc2ccc(F)cc2)n1` (centres unmarked) [Example 12, 3-(2-chlorophenyl)sulfanyl-6-[6-(4-fluorophenoxy)-2-pyridyl]-1-methyl-6-(3-thienyl)piperidine-2,4-dione], for which the 50% inhibitory concentration (IC50) stood at 0.027 µM.

With `CN1C(=O)C(Sc2ccccc2Cl)C(=O)CC1(c1ccsc1)c1ccccc1F` (centres unmarked) [Example 13, 3-(2-chlorophenyl)sulfanyl-6-(2-fluorophenyl)-1-methyl-6-(3-thienyl)piperidine-2,4-dione], the IC50 was 0.058 µM. On to `O=C1CC(c2ccsc2)(c2cccc(OCCC3COC3)n2)NC(=O)C1Sc1ccccc1Cl` (centres unmarked) [Example 16, 3-(2-chlorophenyl)sulfanyl-6-[6-[2-(oxetan-3-yl)ethoxy]-2-pyridyl]-6-(3-thienyl)piperidine-2,4-dione], for which the IC50 was 0.105 µM and 0.076 µM. For `O=C1CC(c2ccsc2)(c2cccc(Oc3ccccc3-c3cn[nH]c3)n2)NC(=O)C1Sc1ccccc1Cl` (centres unmarked) [Example 18, 3-(2-chlorophenyl)sulfanyl-6-[6-[2-(1H-pyrazol-4-yl)phenoxy]-2-pyridyl]-6-(3-thienyl)piperidine-2,4-dione], the IC50 was 0.012 µM. Turning to `O=C1CC(c2ccsc2)(c2cccc(OCCC3CC3(F)F)n2)NC(=O)C1Sc1ccccc1Cl` (centres unmarked) [Example 20, 3-(2-chlorophenyl)sulfanyl-6-[6-[2-(2,2-difluorocyclopropyl)ethoxy]-2-pyridyl]-6-(3-thienyl)piperidine-2,4-dione], the IC50 worked out at 0.039 µM. Consider `Cn1nncc1-c1ccccc1Oc1cccc(C2(c3ccsc3)CC(=O)C(Sc3ccccc3Cl)C(=O)N2)n1` (centres unmarked) [Example 21, 3-(2-chlorophenyl)sulfanyl-6-[6-[2-(3-methyltriazol-4-yl)phenoxy]-2-pyridyl]-6-(3-thienyl)piperidine-2,4-dione], for which the IC50 was 0.119 µM. As to `CN1C(=O)C(Sc2ccccc2Cl)C(=O)CC1(c1ccsc1)c1cccc(OC2CCOCC2)c1` (centres unmarked) [Example 23, 3-(2-chlorophenyl)sulfanyl-1-methyl-6-(3-tetrahydropyran-4-yloxyphenyl)-6-(3-thienyl)piperidine-2,4-dione], the IC50 is 0.026 µM. To `O=C1CC(c2ccsc2)(c2ccc(N3CCOCC3)c(Br)n2)NC(=O)C1Sc1ccccc1Cl` (centres unmarked) [Example 25, 6-(6-bromo-5-morpholino-2-pyridyl)-3-(2-chlorophenyl)sulfanyl-6-(3-thienyl)piperidine-2,4-dione] belongs 0.023 µM; to `O=C1CC(c2ccsc2)(c2ccc(N3CCOCC3)c(Nc3ccc(F)cc3)n2)NC(=O)C1Sc1ccccc1Cl` (centres unmarked) [Example 26, 3-(2-chlorophenyl)sulfanyl-6-[6-(4-fluoroanilino)-5-morpholino-2-pyridyl]-6-(3-thienyl)piperidine-2,4-dione], 0.038 µM. The result for `O=C1CC(c2ccsc2)(c2ccc(N3CCOCC3)c(Oc3ccc(F)cc3)n2)NC(=O)C1Sc1ccccc1Cl` (centres unmarked) [Example 27, 3-(2-chlorophenyl)sulfanyl-6-[6-(4-fluorophenoxy)-5-morpholino-2-pyridyl]-6-(3-thienyl)piperidine-2,4-dione] reads 0.05 µM; that for `O=C1CC(c2ccc(OCCCO)cc2)(c2ccsc2)NC(=O)C1Sc1ccccc1Cl` (centres unmarked) [Example 28, 3-(2-chlorophenyl)sulfanyl-6-[4-(3-hydroxypropoxy)phenyl]-6-(3-thienyl)piperidine-2,4-dione], 0.031 µM. As to `O=C1CC(c2ccc(OCCO)cc2)(c2ccsc2)NC(=O)C1Sc1ccccc1Cl` (centres unmarked) [Example 29, 3-(2-chlorophenyl)sulfanyl-6-[4-(2-hydroxyethoxy)phenyl]-6-(3-thienyl)piperidine-2,4-dione], the IC50 was determined as 0.009 µM. On to `COCCOc1ccc(C2(c3ccsc3)CC(=O)C(Sc3ccccc3Cl)C(=O)N2)cc1` (centres unmarked) [Example 30, 3-(2-chlorophenyl)sulfanyl-6-[4-(2-methoxyethoxy)phenyl]-6-(3-thienyl)piperidine-2,4-dione], for which the IC50 came to 0.053 µM. For `COCCCOc1ccc(C2(c3ccsc3)CC(=O)C(Sc3ccccc3Cl)C(=O)N2)cc1` (centres unmarked) [Example 31, 3-(2-chlorophenyl)sulfanyl-6-[4-(3-methoxypropoxy)phenyl]-6-(3-thienyl)piperidine-2,4-dione], the half-maximal inhibitory concentration (IC50) came out at 0.008 µM.
